Patent US12697330B2, “Therapeutic methods using vadadustat” (Akebia Therapeutics, Inc., priority 2021, dated 2026)

What was measured:
Assay type in all cases: in vivo, human
healthy adults = assay: Drug interaction study with co-administration of vadadustat in healthy adults; conditions: healthy adults; extent of increase
Text: Sulfasalazine. Other Breast Cancer Resistance Protein Substrates. and Probenecid. Exposures to sulfasalazine (moderately) and mesalamine (mildly) were increased with co-administration of vadadustat based on a study in healthy adults. In subjects taking vadadustat, sulfasalazine and other clinically relevant substrates of the breast cancer resistance protein (BCRP) transporter (e.g., sulfasalazine, methotrexate, mitoxantrone, imatinib, irinotecan, lapatinib, topotecan, tenofovir, glecaprevir, pibrentasvir, or sofosbuvir), caution should be taken during the study. Probenecid, an inhibitor of UDP-glucuronosyltransferase (UGT) and the organic anion transporter (OAT)1/3 transporters, increased vadadustat area under the curve and is prohibited during the study.

[1] = Phase 1b study: pharmacokinetics of vadadustat and its metabolites in plasma of hemodialysis subjects with anemia associated with CKD
Procedure: The primary objective of the study was to assess the pharmacokinetics (PK) of vadadustat 600, 750, and 900 mg daily, and IV ESA (darbepoetin alfa or epoetin alfa) in hemodialysis subjects with anemia associated with CKD. Additional objectives included to evaluate the pharmacodynamics (PD) of vadadustat 600, 750, and 900 mg daily, and IV ESA (darbepoetin alfa or epoetin alfa) in hemodialysis subjects with anemia associated with CKD and to assess the safety and tolerability of vadadustat 600, 750, and 900 mg daily and IV ESA (darbepoetin alfa or epoetin alfa) in hemodialysis subjects with anemia associated with CKD.
Study Design. This was a Phase 1b, randomized, open-label study to evaluate the PK, PD, safety, and tolerability of vadadustat 600, 750, or 900 mg daily, or ESA (darbepoetin alfa or epoetin alfa) in hemodialysis subjects with anemia associated with CKD. The study included a 28-day Screening and Randomization period, a 10-day Treatment Period, and a 30-day Safety Follow up Period after the last dose of study drug (vadadustat or ESA). For subjects randomized to vadadustat, study duration also included an ESA washout period of a minimum of 5 days for epoetin alfa or 9 days for darbepoetin alfa or 9-day ESA Washout period prior to dosing on Day 1.
A total of 46 subjects were enrolled in the study. Written informed consent were obtained before any screening procedures were performed. Subjects were screened within 28 days prior to randomization. Eligible subjects were randomized in a 2:2:2:1 ratio to 1 of 4 treatment groups (600, 750, or 900 mg vadadustat QD, or ESA. Randomized subjects began their 10-day Treatment Period within 36 days of initiating screening.
Eligible subjects were randomly assigned in a 2:2:2:1 ratio to 1 of 4 treatment groups: Group 1—vadadustat 600 mg once daily (QD); Group 2—vadadustat 750 mg QD; Group 3—vadadustat 900 QD; and Group 4—IV ESA. Randomization was stratified by the mean weekly ESA dose calculated over a period of 8 weeks prior to the randomization visit. For darbepoetin, the groups were divided into low dose darbepoetin alfa group (<0.5 μg/kg/week) and high dose darbepoetin alfa group (>0.5 to <1.5 μg/kg/week). For epoetin, the groups were divided into low dose epoetin alfa group (≤90 U/kg/week) and high dose epoetin alfa group (>90 to <300 U/kg/week).
Subjects began dosing on Day 1 and took vadadustat at approximately the same time each day for a total of 10 days. On Day 1 and Day 8, subjects took vadadustat after all predose procedures are completed and within 30 minutes prior to the start of dialysis so that the 1-hour post dose blood sample for PK and PD was collected during dialysis. Vadadustat could be taken with or without food. Subjects were instructed to make every effort to take the drug consistently, either with or without food. Subjects were instructed to swallow the tablets whole with water.
PK and EPO Sample. For each vadadustat treatment group, blood samples for vadadustat PK (and its metabolites) and EPO were collected at the following time points: Day 1: predose, and at 1, 2, 3, 4, 5, 8, and 11 hours post dose; Day 2: 24 hours (−2 hours) post Day 1 dose; Day 6: blood sample for EPO analysis only was collected predose on Day 6; Day 8: predose, and at 1, 2, 3, 4, 5, 8, 11 hours post dose, Day 10 or EOT: predose. For the ESA treatment group, blood samples for analysis of EPO were collected at the following time points: Day 1: predose, and at 0.25, 1, 2, 3, 4, 5, 8, and 11 hours post dose; Day 2: 24 hours (−2 hours) post Day 1 dose.
Primary Endpoints. […]

[2] = Phase 2 study, Main Study: pharmacokinetics (vadadustat and vadadustat-O-glucuronide concentration); conditions: Week 1, Week 1+1 day, and Week 11
Procedure: PK/PD Endpoints. An exposure-response analysis of vadadustat and PD measures were conducted as deemed appropriate. The PK parameters included (but were not limited to) the following: area under concentration-time curve from dosing to last measurable concentration (AUClast), area under concentration-time curve from dosing to infinity (AUCinf), Cmax, apparent total body clearance (CL/F), apparent volume of distribution (Vd/F), and terminal half-life (t1/2). The PD parameters included (but were not limited to) the following: EPO, reticulocytes, iron, ferritin, TIBC, and hepcidin.
PK population: included all randomized subjects who received study drug (vadadustat or epoetin alfa) and had enough drug concentrations to estimate AUC and Cmax. Analysis of this population was based on the dose amount taken at the date of PK sampling for the vadadustat group.

SMILES	Exposures increased with co-administration of vadadustat (healthy adults)	metabolite exposure versus dose ([1]; Day 8)	accumulation versus dose ([1]; most pronounced in the 900 mg vadadustat treatment group)	mean concentration versus time profiles, dose dependency [2]
Nc1ccc(O)c(C(=O)O)c1 [mesalamine]	mildly	–	–	–
O=C(O)c1cc(/N=N/c2ccc(S(=O)(=O)Nc3ccccn3)cc2)ccc1O [sulfasalazine]	moderately	–	–	–
O=C(O)CNC(=O)c1ncc(-c2cccc(Cl)c2)cc1O[C@@H]1O[C@H](C(=O)O)[C@@H](O)[C@H](O)[C@H]1O [vadadustat-O-glucuronide]	–	increased in a dose-dependent manner	dose-dependent increase in accumulation	concentrations increased with dose levels
